# Key:
# Test in all cases: Test D pre-/postemergence plant response
# Assay type in all cases: in vivo
# [1] = system: bluegrass (annual bluegrass, Poa annua)
# Outline: (§1)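 Pre + post applications; loam/sand soil; solvent + surfactant vehicle; post-em plants 1- to 4-leaf (2–18 cm); greenhouse 14–21 d; visual score 0 (none) to 100 (full control) vs untreated.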
# [2] = system: chickweed (common chickweed, Stellaria media); conditions: Postemergence, 31 g ai/ha; scale 0 to 100
# Outline: as §1
# [3] = system: goosegrass (Eleusine indica)
# Outline: as §1
# [4] = system: quackgrass (Elytrigia repens)
# Outline: as §1
# [5] = system: sandbur (southern sandbur, Cenchrus echinatus)
# Outline: as §1
# [6] = system: ragweed (common ragweed, Ambrosia elatior)
# Outline: as §1
# [7] = system: black mustard (Brassica nigra)
# Outline: as §1
# [8] = system: Surinam grass (Brachiaria decumbens)
# Outline: as §1
# kochia (Kochia scoparia) = system: kochia (Kochia scoparia)
# Outline: as §1
# [9] = system: dayflower (Virginia (VA) dayflower, Commelina virginica)
# Outline: as §1
# [10] = system: large crabgrass (Digitaria sanguinalis)
# Outline: as §1
# [11] = system: dallisgrass (Paspalum dilatatum)
# Outline: as §1
# [12] = system: purslane (common purslane, Portulaca oleracea)
# Outline: as §1
# [13] = system: morningglory (pitted morningglory, Ipomoea lacunosa)
# Outline: as §1
# [14] = system: Russian thistle (Salsola kali)
# Outline: as §1
# [15] = system: signalgrass (broadleaf signalgrass, Brachiaria platyphylla)
# Outline: as §1
# [16] = Postemergence, 16 g ai/ha, scale 0 to 100
# [17] = Postemergence, 125 g ai/ha, scale 0 to 100 (0 no effect, 100 complete control)
# [18] = Postemergence, 62 g ai/ha, scale 0 to 100 (0 no effect, 100 complete control)
# [19] = Preemergence, 16 g ai/ha, scale 0 to 100, 0 no effect, 100 complete control
# [20] = Preemergence, 31 g ai/ha, scale 0 to 100 (0 no effect, 100 complete control)
# [21] = Preemergence, 62 g ai/ha, scale 0 to 100
# [22] = Preemergence, 125 g ai/ha, scale 0 to 100
# [23] = Postemergence, 31 g ai/ha, scale 0 to 100
smiles,measurement,setting,value
"O=C1CCCC(O)=C1C(=O)c1cnc(-c2cccnc2)n(-c2ccccc2)c1=O [Compound 113, 5-[(2-hydroxy-6-oxo-1-cyclohexen-1-yl)carbonyl]-3-phenyl-2-(3-pyridinyl)-4(3H)-pyrimidone]","Plant response rating, Bluegrass",[1]; [16],0
same,"Plant response rating, Bluegrass","[1]; Postemergence, 31 g ai/ha, scale 0 to 100 (0 no effect, 100 complete control)",0
same,"Plant response rating, Bluegrass",[1]; [17],0
same,"Plant response rating, Bluegrass",[1]; [18],0
same,"Plant response rating, Bluegrass",[1]; [19],0
same,"Plant response rating, Bluegrass",[1]; [20],0
same,"Plant response rating, Bluegrass",[1]; [21],0
same,"Plant response rating, Bluegrass",[1]; [22],0
same,"Plant response rating, Chickweed",[2],70
same,"Plant response rating, Goosegrass",[3]; [16],40
same,"Plant response rating, Goosegrass",[3]; [23],50
same,"Plant response rating, Goosegrass",[3]; [17],65
same,"Plant response rating, Goosegrass",[3]; [18],65
same,"Plant response rating, Goosegrass",[3]; [19],25
same,"Plant response rating, Goosegrass",[3]; [20],25
same,"Plant response rating, Goosegrass",[3]; [21],75
same,"Plant response rating, Goosegrass",[3]; [22],95
same,"Plant response rating, Quackgrass",[4]; [16],0
same,"Plant response rating, Quackgrass",[4]; [23],0
same,"Plant response rating, Quackgrass",[4]; [17],30
same,"Plant response rating, Quackgrass",[4]; [18],20
same,"Plant response rating, Quackgrass",[4]; [19],0
same,"Plant response rating, Quackgrass",[4]; [20],0
same,"Plant response rating, Quackgrass",[4]; [22],0
same,"Plant response rating, Sandbur",[5]; [16],5
same,"Plant response rating, Sandbur",[5]; [23],10
same,"Plant response rating, Sandbur",[5]; [17],60
same,"Plant response rating, Sandbur",[5]; [18],60
same,"Plant response rating, Sandbur",[5]; [19],0
same,"Plant response rating, Sandbur",[5]; [20],0
same,"Plant response rating, Sandbur",[5]; [22],90
same,"Plant response rating, Ragweed",[6]; [16],70
same,"Plant response rating, Ragweed",[6]; [23],70
same,"Plant response rating, Ragweed",[6]; [17],80
same,"Plant response rating, Ragweed",[6]; [18],75
same,"Plant response rating, Ragweed",[6]; [19],0
same,"Plant response rating, Ragweed",[6]; [20],50
same,"Plant response rating, Ragweed",[6]; [22],98
same,"Plant response rating, Black Mustard",[7]; [16],100
same,"Plant response rating, Black Mustard",[7]; [17],100
same,"Plant response rating, Black Mustard",[7]; [18],100
same,"Plant response rating, Black Mustard",[7]; [19],0
same,"Plant response rating, Black Mustard",[7]; [20],0
same,"Plant response rating, Black Mustard",[7]; [21],80
same,"Plant response rating, Black Mustard",[7]; [22],100
same,"Plant response rating, Surinam Grass",[8]; [16],60
same,"Plant response rating, Surinam Grass",[8]; [23],75
same,"Plant response rating, Surinam Grass",[8]; [18],80
same,"Plant response rating, Surinam Grass",[8]; [20],40
same,"Plant response rating, Surinam Grass",[8]; [22],95
same,"Plant response rating, Kochia",kochia (Kochia scoparia); [16],25
same,"Plant response rating, Kochia",kochia (Kochia scoparia); [23],40
same,"Plant response rating, Kochia",kochia (Kochia scoparia); [17],50
same,"Plant response rating, Kochia",kochia (Kochia scoparia); [18],50
same,"Plant response rating, Kochia",kochia (Kochia scoparia); [20],70
same,"Plant response rating, Kochia",kochia (Kochia scoparia); [21],100
same,"Plant response rating, Kochia",kochia (Kochia scoparia); [22],100
same,"Plant response rating, Dayflower, VA",[9]; [16],20
same,"Plant response rating, Dayflower, VA",[9]; [23],40
same,"Plant response rating, Dayflower, VA",[9]; [17],60
same,"Plant response rating, Dayflower, VA",[9]; [18],60
same,"Plant response rating, Dayflower, VA",[9]; [19],50
same,"Plant response rating, Dayflower, VA",[9]; [20],50
same,"Plant response rating, Dayflower, VA",[9]; [21],50
same,"Plant response rating, Dayflower, VA",[9]; [22],65
same,"Plant response rating, Crabgrass, Large",[10]; [16],60
same,"Plant response rating, Crabgrass, Large",[10]; [23],60
same,"Plant response rating, Crabgrass, Large",[10]; [17],70
same,"Plant response rating, Crabgrass, Large",[10]; [18],70
same,"Plant response rating, Crabgrass, Large",[10]; [19],20
same,"Plant response rating, Crabgrass, Large",[10]; [20],30
same,"Plant response rating, Crabgrass, Large",[10]; [21],95
same,"Plant response rating, Crabgrass, Large",[10]; [22],95
same,"Plant response rating, Dallisgrass",[11]; [16],10
same,"Plant response rating, Dallisgrass",[11]; [23],10
same,"Plant response rating, Dallisgrass",[11]; [17],70
same,"Plant response rating, Dallisgrass",[11]; [18],60
same,"Plant response rating, Dallisgrass",[11]; [19],5
same,"Plant response rating, Dallisgrass",[11]; [20],50
same,"Plant response rating, Dallisgrass",[11]; [21],50
same,"Plant response rating, Dallisgrass",[11]; [22],100
same,"Plant response rating, Purslane",[12]; [16],30
same,"Plant response rating, Purslane",[12]; [23],30
same,"Plant response rating, Purslane",[12]; [17],75
same,"Plant response rating, Purslane",[12]; [18],50
same,"Plant response rating, Purslane",[12]; [19],90
same,"Plant response rating, Purslane",[12]; [20],100
same,"Plant response rating, Purslane",[12]; [21],100
same,"Plant response rating, Purslane",[12]; [22],100
same,"Plant response rating, Morningglory",[13]; [16],50
same,"Plant response rating, Morningglory",[13]; [23],60
same,"Plant response rating, Morningglory",[13]; [17],90
same,"Plant response rating, Morningglory",[13]; [18],90
same,"Plant response rating, Morningglory",[13]; [19],60
same,"Plant response rating, Morningglory",[13]; [20],60
same,"Plant response rating, Morningglory",[13]; [21],60
same,"Plant response rating, Morningglory",[13]; [22],90
same,"Plant response rating, Russian Thistle",[14]; [16],0
same,"Plant response rating, Russian Thistle",[14]; [23],0
same,"Plant response rating, Russian Thistle",[14]; [17],20
same,"Plant response rating, Russian Thistle",[14]; [18],20
same,"Plant response rating, Russian Thistle",[14]; [19],0
same,"Plant response rating, Russian Thistle",[14]; [20],65
same,"Plant response rating, Russian Thistle",[14]; [22],100
same,"Plant response rating, Signalgrass",[15]; [16],5
same,"Plant response rating, Signalgrass",[15]; [23],40
same,"Plant response rating, Signalgrass",[15]; [17],75
same,"Plant response rating, Signalgrass",[15]; [18],60
same,"Plant response rating, Signalgrass",[15]; [19],0
same,"Plant response rating, Signalgrass",[15]; [20],0
same,"Plant response rating, Signalgrass",[15]; [22],90

# From patent publication US8952024B2, “Herbicidal pyrimidone derivatives” (E I du Pont de Nemours and Company, priority 2009, dated 2015)
